Results from patent US20130029923A1, “Materials and Methods for Prevention and Treatment of Viral Infections” (priority 2009, published 2013).

Tested on: influenza virus H1N1 (A/Victoria/07159200/07), oseltamivir-resistant strain
Format: cell-based, human influenza virus

## C[C@@H]1O[C@@H](OC[C@H]2O[C@@H](OCCc3ccc(O)c(O)c3)[C@H](O)[C@@H](O)[C@@H]2OC(=O)/C=C/c2ccc(O)c(O)c2)[C@H](O)[C@H](O)[C@H]1O [Compound A1, forsythoside A]
  suppression of virus replication (TCID50) compared with DMSO-treated cells: ~3 fold
